Measured values from patent US8101626B2, “GPR119 receptor agonists in methods of increasing bone mass and of treating osteoporosis and other conditions characterized by low bone mass, and combination therapy relating thereto” (Arena Pharmaceuticals, Inc., priority 2006, dated 2012).

Key:
[1] = tested on: blood GIP level; assay: Effect of oral GPR119 agonist on plasma GIP level (rodent total GIP ELISA) in wild-type mice, with oral glucose bolus; format: in vivo, C57blk/6 male mice; settings: 20 mg/kg per orally vs vehicle PET, FIG. 1A
Protocol: A. C57blk/6 male mice were fasted for 18 hours, and randomly assigned into fourteen groups with n=6 for each group. Mice were administered per orally with vehicle (PET; 80% PEG400, 10% ethanol, 10% Tween80) or with a GPR119 agonist in accordance with the present invention (Compound 1Z; (2-Fluoro-4-methanesulfonyl-phenyl)-{6-[4-(3-isopropyl-[1,2,4]oxadiazol-5-yl)-piperidin-1-yl]-5-nitro-pyrimidin-4-yl}-amine) at 20 mg/kg, as indicated in FIG. 1A. Thirty minutes after treatment, a glucose bolus at 3 g/kg were delivered per orally, and plasma were collected at 0 (no glucose bolus), 2, 5, 10, 20, 40 and 60 minutes after glucose bolus. Plasma GIP levels were determined by using a rodent GIP ELISA kit purchased from Linco Research Laboratory [Rat/Mouse Gastric Inhibitory Polypeptide (Total) ELISA Catalog #EZRMGIP-55K], following instructions provided by the supplier. […]
B. C57blk/6 male mice were fasted for 18 hours, and randomly assigned into fourteen groups with n=6 for each group. […] Plasma GIP levels were determined by using a rodent GIP ELISA kit purchased from Linco Research Laboratory [Rat/Mouse Gastric Inhibitory Polypeptide (Total) ELISA Catalog #EZRMGIP-55K], following instructions provided by the supplier. […] Mean values of GIP concentration were calculated based on results with six mice in each group and shown as mean±SEM. […]

[2] = target: T1, GPR119 receptor (Mus musculus, UniProt Q7TQP3); assay: Effect of oral GPR119 agonist on plasma GIP level in GPR119-deficient (knockout) mice compared to wild-type littermates; format: in vivo; settings: 20 mg/kg per orally; wild-type littermates; time 0 and 5 min after glucose bolus 3 g/kg; FIG. 2A
T1 construct: from tissue; host or cells: whole animal: wild-type male mice dosed orally, compared with GPR119-deficient littermates
T1 sequence (Q7TQP3 1-335): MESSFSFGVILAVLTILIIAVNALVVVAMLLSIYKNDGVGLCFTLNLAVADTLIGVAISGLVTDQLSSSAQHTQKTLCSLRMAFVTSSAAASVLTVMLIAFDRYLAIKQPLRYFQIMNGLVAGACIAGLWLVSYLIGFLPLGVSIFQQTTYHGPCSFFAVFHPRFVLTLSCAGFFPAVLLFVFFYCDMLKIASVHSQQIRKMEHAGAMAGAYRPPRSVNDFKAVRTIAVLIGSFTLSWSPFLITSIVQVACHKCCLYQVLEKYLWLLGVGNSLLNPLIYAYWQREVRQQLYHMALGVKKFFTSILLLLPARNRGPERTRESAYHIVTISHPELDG
Protocol: (§1) A. GPR119-deficient male mice and wild-type littermates were fasted for 18 hours. Mice were administered per orally with vehicle (PET; 80% PEG400, 10% ethanol, 10% Tween80) or with a GPR119 agonist in accordance with the present invention (Compound 1Z; (2-Fluoro-4-methanesulfonyl-phenyl)-{6-[4-(3-isopropyl-[1,2,4]oxadiazol-5-yl)-piperidin-1-yl]-5-nitro-pyrimidin-4-yl}-amine) at 20 mg/kg, as indicated (n=5). Thirty minutes after treatment, blood (100 microliter) was collected via retro orbital vein of the eye (time 0) followed by a glucose bolus at 3 g/kg (per orally). Five minutes after delivering glucose, another blood sample (100 microliter) was collected (time 5 minutes). Plasma were collected after centrifugation and GIP levels were determined by using a rodent GIP ELISA kit purchased from Linco Research Laboratory [Rat/Mouse Gastric Inhibitory Polypeptide (Total) ELISA Catalog #EZRMGIP-55K], following instructions provided by the supplier. […]
(§2) B. GPR119-deficient male mice and wild-type littermates were fasted for 18 hours. […] Plasma were collected after centrifugation and GIP levels were determined by using a rodent GIP ELISA kit purchased from Linco Research Laboratory [Rat/Mouse Gastric Inhibitory Polypeptide (Total) ELISA Catalog #EZRMGIP-55K], following instructions provided by the supplier. […]

[3] = tested on: GPR119 receptor; assay: as above; format: in vivo; settings: 20 mg/kg per orally vs vehicle PET; blood at time 0 and 5 min after glucose bolus 3 g/kg; FIG. 2A
Protocol: as §1, §2

SMILES: CC(C)c1noc(C2CCN(c3ncnc(Nc4ccc(S(C)(=O)=O)cc4F)c3[N+](=O)[O-])CC2)n1 [Compound 1Z, (2-Fluoro-4-methanesulfonyl-phenyl)-{6-[4-(3-isopropyl-[1,2,4]oxadiazol-5-yl)-piperidin-1-yl]-5-nitro-pyrimidin-4-yl}-amine]
- level of GIP in the blood of the mice (glucose-dependent and glucose-independent) ([1]; glucose bolus 3 g/kg 30 min after treatment, plasma at 0 (no glucose bolus), 2, 5, 10, 20, 40, 60 min): increased both a glucose-dependent and a glucose-independent level of GIP
- plasma total GIP ([1]; glucose bolus 3 g/kg, time course 0-60 min): stimulated plasma total GIP
- plasma total GIP in wild-type mice [2]: stimulated plasma total GIP in the wild-type mice
- glucose-independent and glucose-dependent level of GIP in the blood, GPR119-deficient vs wild-type mice [3]: functional GPR119 receptor was necessary for the administered GPR119 agonist to increase a glucose-independent level and a glucose-dependent level of GIP
